# Measurements from PubChem BioAssay AID264 (DTP/NCI, 2004).
# Results filed as inconclusive are left out.
# Tested on: nude mice, LX-1 lung xenograft intrarenal, tumor weight T/C
# Experiment: NCI In Vivo Anticancer Drug Screen. Data for tumor model Human Lung LX-1 Xenograft (intrarenal inoculation) in NU/NU Swiss (nude) mice
# Conditions: endpoint: mean tumor weight change, higher = larger tumour
# Method in brief: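 Readout: T/C, i.e. treated-group tumor measurement over vehicle-control measurement. Mice bearing transplantable tumors were dosed with compound or vehicle.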
# [1] = dose: 50.0 mg/kg/injection, schedule: Q04DX003 (sc), vehicle: saline with Tween-80
# [2] = dose: 400.0 mg/kg/injection, schedule: Q04DX003 (sc), vehicle: saline with Tween-80
# [3] = dose: 150.0 mg/kg/injection, schedule: Q04DX003 (sc), vehicle: Klucel (hydroxypropylcellulose) (HPC)
# [4] = dose: 300.0 mg/kg/injection, schedule: Q04DX003 (sc), vehicle: Klucel (hydroxypropylcellulose) (HPC)
# [5] = dose: 600.0 mg/kg/injection, schedule: Q04DX003 (sc), vehicle: Klucel (hydroxypropylcellulose) (HPC)
# [6] = dose: 1200.0 mg/kg/injection, schedule: Q04DX003 (sc), vehicle: Klucel (hydroxypropylcellulose) (HPC)
# [7] = dose: 300.0 mg/kg/injection, schedule: Q04DX003 (sc), vehicle: saline with Tween-80
# [8] = dose: 600.0 mg/kg/injection, schedule: Q04DX003 (sc), vehicle: suspension in saline
# [9] = dose: 1200.0 mg/kg/injection, schedule: Q04DX003 (sc), vehicle: suspension in saline
structure (smiles),measurement,setting,value
COc1c(O)c2c(c3cc(C(=O)N4CCc5c4c(O)c(OC)c4[nH]c(C(=O)N6CC7CC78C6=CC(=O)c6[nH]cc(C)c68)cc54)[nH]c13)CCN2C(N)=O (stereo unspecified),T/C,"dose: 6.25 micrograms/kg/injection, schedule: Q01DX010 (sc), vehicle: DMSO",121 % of control
same,T/C,"dose: 12.5 micrograms/kg/injection, schedule: Q01DX010 (sc), vehicle: DMSO",107 % of control
same,T/C,"dose: 25.0 micrograms/kg/injection, schedule: Q01DX010 (sc), vehicle: DMSO",68 % of control
same,T/C,"dose: 50.0 micrograms/kg/injection, schedule: Q01DX010 (sc), vehicle: DMSO",66 % of control
CCCCCCCC(=O)N/N=C(\CO)[C@]1(O)Cc2c(O)c3c(c(O)c2[C@@H](OC2CC(N)C(O)C(C)O2)C1)C(=O)c1c(OC)cccc1C3=O (stereo partly specified),T/C,"dose: 12.5 mg/kg/injection, schedule: Q01DX010 (sc), vehicle: water",40 % of control
same,T/C,"dose: 25.0 mg/kg/injection, schedule: Q01DX010 (sc), vehicle: water",63 % of control
same,T/C,"dose: 50.0 mg/kg/injection, schedule: Q01DX010 (sc), vehicle: water",24 % of control
Clc1ccc2nnnn2n1,T/C,[1],72 % of control
same,T/C,"dose: 100.0 mg/kg/injection, schedule: Q04DX003 (sc), vehicle: saline with Tween-80",88 % of control
same,T/C,"dose: 200.0 mg/kg/injection, schedule: Q04DX003 (sc), vehicle: saline with Tween-80",85 % of control
same,T/C,[2],93 % of control
CC1=C(O)C(=O)[C@@H]2O[C@@H]2C1=O,T/C,"dose: 1.25 mg/kg/injection, schedule: Q04DX003 (sc), vehicle: saline",103 % of control
same,T/C,"dose: 2.5 mg/kg/injection, schedule: Q04DX003 (sc), vehicle: saline",106 % of control
same,T/C,"dose: 5.0 mg/kg/injection, schedule: Q04DX003 (sc), vehicle: saline",160 % of control
same,T/C,"dose: 10.0 mg/kg/injection, schedule: Q04DX003 (sc), vehicle: saline",114 % of control
CSCS(=O)C[C@H](CO)NC(=O)/C=C/c1c(C)[nH]c(=O)[nH]c1=O (stereo partly specified),T/C,"dose: 0.75 mg/kg/injection, schedule: Q04DX003 (sc), vehicle: saline",76 % of control
same,T/C,"dose: 1.5 mg/kg/injection, schedule: Q04DX003 (sc), vehicle: saline",70 % of control
same,T/C,"dose: 3.0 mg/kg/injection, schedule: Q04DX003 (sc), vehicle: saline",68 % of control
CC(=O)OC1=NC(C)c2c1cc(OC(C)=O)[nH]c2=O (stereo unspecified),T/C,[3],90 % of control
same,T/C,[4],87 % of control
same,T/C,[5],87 % of control
same,T/C,[6],74 % of control
CN=S(=O)(OCCCCCOS(=O)(=NC)c1ccc(C)cc1)c1ccc(C)cc1 (stereo unspecified),T/C,"dose: 37.5 mg/kg/injection, schedule: Q04DX003 (sc), vehicle: saline with Tween-80",72 % of control
same,T/C,"dose: 75.0 mg/kg/injection, schedule: Q04DX003 (sc), vehicle: saline with Tween-80",83 % of control
same,T/C,"dose: 150.0 mg/kg/injection, schedule: Q04DX003 (sc), vehicle: saline with Tween-80",88 % of control
same,T/C,[7],30 % of control
CC(=O)OCC1OC(OC2=C(CC=C(C)C)C(=O)c3ccccc3C2=O)C(OC(C)=O)C(OC(C)=O)C1OC(C)=O (stereo unspecified),T/C,"dose: 12.5 mg/kg/injection, schedule: Q01DX010 (sc), vehicle: Klucel (hydroxypropylcellulose) (HPC)",61 % of control
same,T/C,"dose: 25.0 mg/kg/injection, schedule: Q01DX010 (sc), vehicle: Klucel (hydroxypropylcellulose) (HPC)",119 % of control
same,T/C,"dose: 50.0 mg/kg/injection, schedule: Q01DX010 (sc), vehicle: Klucel (hydroxypropylcellulose) (HPC)",97 % of control
same,T/C,"dose: 100.0 mg/kg/injection, schedule: Q01DX010 (sc), vehicle: Klucel (hydroxypropylcellulose) (HPC)",83 % of control
O=c1n(CC2CO2)c(=O)n(CC2CO2)c(=O)n1CC1CO1 (stereo unspecified),T/C,"dose: 12.5 mg/kg/injection, schedule: Q01DX010 (sc), vehicle: saline",65 % of control
same,T/C,"dose: 25.0 mg/kg/injection, schedule: Q01DX010 (sc), vehicle: saline",56 % of control
same,T/C,"dose: 25.0 mg/kg/injection, schedule: Q04DX003 (sc), vehicle: saline with Tween-80",94 % of control
same,T/C,[1],100 % of control
C=Cc1cnc([N+](=O)[O-])n1C,T/C,"dose: 75.0 mg/kg/injection, schedule: Q04DX003 (sc), vehicle: Klucel (hydroxypropylcellulose) (HPC)",106 % of control
same,T/C,[3],96 % of control
same,T/C,[4],98 % of control
same,T/C,[5],92 % of control
O=C(O)/C=C/C(=O)Nc1ccc(Cl)c(Cl)c1,T/C,"dose: 100.0 mg/kg/injection, schedule: Q04DX003 (sc), vehicle: Klucel (hydroxypropylcellulose) (HPC)",95 % of control
same,T/C,"dose: 200.0 mg/kg/injection, schedule: Q04DX003 (sc), vehicle: Klucel (hydroxypropylcellulose) (HPC)",91 % of control
NC(=S)c1ncn(C2OC(CO)C(O)C2O)c1N (stereo unspecified),T/C,"dose: 150.0 mg/kg/injection, schedule: Q04DX003 (sc), vehicle: suspension in saline",87 % of control
same,T/C,"dose: 300.0 mg/kg/injection, schedule: Q04DX003 (sc), vehicle: suspension in saline",102 % of control
same,T/C,[8],98 % of control
same,T/C,[9],103 % of control
Cc1cc(NS(=O)(=O)c2ccc(N=Nc3cc(N=Nc4ccc(S(=O)(=O)Nc5cc(C)nc(C)n5)cc4)c4c(NC(=O)C(Cl)Cl)cccc4c3OC(=O)C(Cl)Cl)cc2)nc(C)n1 (tested in a mixture with another compound),T/C,[8],95 % of control
same,T/C,[9],115 % of control
same,T/C,"dose: 2400.0 mg/kg/injection, schedule: Q04DX003 (sc), vehicle: suspension in saline",121 % of control
Nc1ccc(C(OC(=O)c2cc3ccccc3c(Cc3c(O)c(C(=O)OC(c4ccc(N)cc4)(c4ccc(N)cc4)c4ccc(N)cc4)cc4ccccc34)c2O)(c2ccc(N)cc2)c2ccc(N)cc2)cc1,T/C,"dose: 36.0 mg/kg/injection, schedule: Q04DX003 (sc), vehicle: saline with Tween-80",87 % of control
same,T/C,"dose: 72.0 mg/kg/injection, schedule: Q04DX003 (sc), vehicle: saline with Tween-80",116 % of control
same,T/C,"dose: 144.0 mg/kg/injection, schedule: Q04DX003 (sc), vehicle: saline with Tween-80",67 % of control
same,T/C,"dose: 288.0 mg/kg/injection, schedule: Q04DX003 (sc), vehicle: saline with Tween-80",58 % of control
O=C(NC1CCCCC1)OCc1c(COC(=O)NC2CCCCC2)c(-c2ccc(Cl)c(Cl)c2)n2c1CCC2,T/C,[7],88 % of control
same,T/C,"dose: 600.0 mg/kg/injection, schedule: Q04DX003 (sc), vehicle: saline with Tween-80",94 % of control
same,T/C,"dose: 1200.0 mg/kg/injection, schedule: Q04DX003 (sc), vehicle: saline with Tween-80",104 % of control
same,T/C,"dose: 2400.0 mg/kg/injection, schedule: Q04DX003 (sc), vehicle: saline with Tween-80",104 % of control
C[C@]12CC[C@@H]3c4ccc(O)cc4CC[C@H]3[C@@H]1CC[C@@H]2O,T/C,[4],120 % of control
same,T/C,[5],101 % of control
same,T/C,[6],103 % of control
same,T/C,"dose: 2400.0 mg/kg/injection, schedule: Q04DX003 (sc), vehicle: Klucel (hydroxypropylcellulose) (HPC)",53 % of control
BrC[P+](CBr)(CBr)CBr,T/C,[2],156 % of control
COC1CC(C)C(OC)C2=CC(=O)C=C(NC(=O)/C(C)=C/C=C\C(C)C(OC(N)=O)/C(C)=C\C(C)C1OC)C2=O (stereo unspecified),T/C,"dose: 12.5 mg/kg/injection, schedule: Q04DX003 (sc), vehicle: saline + alcohol",35 % of control
same,T/C,"dose: 25.0 mg/kg/injection, schedule: Q04DX003 (sc), vehicle: saline + alcohol",87 % of control
same,T/C,"dose: 50.0 mg/kg/injection, schedule: Q04DX003 (sc), vehicle: saline + alcohol",73 % of control
COc1ccc(CC2C(=O)NC(C)C(=O)N(C)C3Cc4ccc(cc4)Oc4cc(ccc4O)CC(C(=O)NC(C)C(=O)NC(C)C(=O)N2C)N(C)C3=O)cc1 (stereo unspecified),T/C,"dose: 4.0 mg/kg/injection, schedule: Q04DX003 (sc), vehicle: saline with Tween-80",61 % of control
same,T/C,"dose: 8.0 mg/kg/injection, schedule: Q04DX003 (sc), vehicle: saline with Tween-80",25 % of control
same,T/C,"dose: 16.0 mg/kg/injection, schedule: Q04DX003 (sc), vehicle: saline with Tween-80",34 % of control
same,T/C,"dose: 32.0 mg/kg/injection, schedule: Q04DX003 (sc), vehicle: saline with Tween-80",27 % of control
CCOC(=O)C(N)C[S][Sn]([CH3])([CH3])[Cl] (stereo unspecified),T/C,"dose: 18.75 mg/kg/injection, schedule: Q04DX003 (sc), vehicle: saline",52 % of control
same,T/C,"dose: 37.5 mg/kg/injection, schedule: Q04DX003 (sc), vehicle: saline",57 % of control
same,T/C,"dose: 75.0 mg/kg/injection, schedule: Q04DX003 (sc), vehicle: saline",54 % of control
Cc1c(N)nc(C(CC(N)=O)NCC(N)C(N)=O)nc1C(=O)NC(C(=O)NC(C)C(O)CC(=O)NC(C(=O)NC(OC1OC(C)C(N)C(O)C1O)C(O)c1nc(-c2nc(C(=O)NCCCC(N)CC(=O)NCCCNCCCCN)cs2)cs1)C(C)O)C(OC1OC(CO)C(O)C(O)C1OC1OC(CO)C(O)C(OC(N)=O)C1O)c1cnc[nH]1 (stereo unspecified),T/C,"dose: 16.0 mg/kg/injection, schedule: Q04DX003 (sc), vehicle: saline",73 % of control
